Measurements as given in patent US20230002344A1, “NOVEL BENZOTHIOPHENE DERIVATIVES AND USE THEREOF FOR STIMULATING MITOCHONDRIAL TURNOVER” (NIBN, The National Institute For Biotechnology In The Negev …, priority 2019, published 2023).
Entries after “also recorded” stand apart in the source; their conditions may differ.

Columns and labels:
INS1 cells [1] = assay: Cell viability (XTT); format: cell-based; details: 25 μM, 24 hours exposure
Experimental: Cell Viability. Viability was measured using an XTT kit (Biological Industries), as recommended by the manufacturer. 30,000 cells were seeded in a flat 96-well plate. To each well 100 μl of growth media was added. The cells were incubated in a CO2 incubator at 37° C. In most cases, cells can be used to assay proliferation after 24-96 hours. Each test included a blank containing complete medium without cells as a background control. To prepare a reaction solution sufficient for one plate (96 wells), 0.1 ml activation solution was added to 5 ml XTT reagent. 50 μl of the reaction solution was added to each well and the plate was incubated in an incubator for 2-24 hours. Following the incubation, the plate was shacked gently to evenly distribute the dye in the wells and the absorbance of the samples was measured against a background control with a spectrophotometer (ELISA reader) at a wavelength of 480 nm. To determine non-specific readings we used a wavelength of 650 nm which we subtracted from the 480 nm measurement. The average absorbance of the blank control wells was finally subtracted from that of the other wells.
For all the experiment concerning cell viability, a kit of XTT reagent was used (Biological Industries).

INS1 cells [2] = assay: Lipotoxicity (palmitate) protection and recovery; format: cell-based
Experimental: In FIGS. 4A and 4B: INS1 cells were treated with either DMSO (control), SPB08007 (25 μM), or MWP00839 (25 μM) for 18 hours and were subjected to an Oxygen consumption rate (OCR) test. Viability test (using XTT staining) was determined after 24 hours exposure. […] In FIG. 4C: INS1 cells were treated with 400 μM palmitate (1:5 BSA palmitate) for 24 hours and were then let to recover in presence or absence of SPB08007 (“SBP”) for 18 hours. n=4 (paired t-test).
To address the potential beneficiary effect of mitochondrial clearance by SPB08007 (compound of structural Formula 6), we employed lipotoxicity, a model that we have previously reported to impair autophagy and mitochondrial clearance by alkalization of the lysosomes (Las, G., et al., Fatty acids suppress autophagic turnover in beta-cells. J Biol Chem, 2011.286 (49): p. 42534-44).

Mitochondrial complex I = assay: Complex I activity assay; format: biochemical; details: mitochondria from INS1 cells treated with 25 uM
Experimental: Complex I Activity assay. Mitochondrial complex I enzyme activity was measured using Abcam's complex I enzyme activity microplate assay Kit (ab109721) by following the oxidation of reduced nicotinamide adenine dinucleotide (NADH) to oxidized NAD+ and the simultaneous reduction of a dye which leads to increased absorbance at OD=450 nm.

mouse islets = assay: Glucose stimulation insulin secretion assay; format: cell-based; details: 25 uM 24 h pretreatment
Experimental: FIG. 12A show mouse islets were pre-incubated with SPB08007 (25 uM) or DMSO (0.1%) for 24 h. Islets were adapted to KRB media containing glucose 2 mM for 1 h, followed by media exchange containing glucose 2 mM (basal) or 12 mM (stimulated). After 1 h, Insulin released in the media was measured by ELISA. […] N=3. *p<0.05 vs. DMSO basal. ***p<0.001 vs. DMSO.
Islet isolation. Islets were isolated from DBA/2 mice. Briefly, pancreata of anesthetized mice were infused with collagenase (1 mg/ml, type XI, Sigma-Aldrich, Rehovot, Israel), excised, and incubated for 30 min at 37° C. The digested tissue was vortexed, filtered and washed in HBSS (Biological Industries) containing 0.5% BSA (Sigma). The pellet was resuspended in RPMI medium 1640 supplemented with 10% FCS, 50 units/ml penicillin, and 50 μg/ml streptomycin (all from Biological Industries). Islets were collected on a 100-μm cell strainer (BD, Falcon) and hand-picked using stereoscope (Zeiss, Oberkochen, Germany)
Glucose stimulation insulin secretion assay. After 24-hour pretreatment with SPB08007, 25 uM, islets were washed twice with PBS (Biological Industries, Bet-Haemek, Israel). For basal insulin secretion, the islets were incubated with Krebs-Ringer Bicarbonate (KRB) buffer supplemented with 0.5% BSA and 2 mM glucose for 30 min at 37 deg. C and 5% CO2. For stimulated insulin secretion, the buffer was replaced with KRB buffer supplemented with 0.5% BSA and 16 mM glucose and the islets were incubated for additional 60 min. Supernatant insulin content was measured by ELISA (Merck Millipore, Burlington, Mass.).

CC(=O)N/C(=C\c1sc2ccccc2c1C)C(=O)O [SPB08007]
viability (XTT) (INS1 cells [1]): did not affect viability; also recorded: comparable to DMSO control
recovery after palmitate (INS1 cells [2]; 400 μM palmitate 24 hours, then 18 hours recovery with compound): slight but significant increase in recovery
protection from palmitate, co-treatment (INS1 cells [2]; co-treatment with palmitate for 18 hours): did not show any protection
mitochondrial Complex I activity (Mitochondrial complex I): two-and-a-half-fold increase
insulin secretion fold (glucose stimulated/basal) (mouse islets): higher secretion fold
basal insulin secretion (mouse islets; 2 mM glucose): significantly reduced
glucose-stimulated insulin secretion (mouse islets; 16 mM of glucose): maintaining the levels
